The numbers were not newly measured in patent publication US20110086070A1, “Orally disintegrating compositions of rhein or diacerein” (priority 2008, published 2011), which cites them from elsewhere.

The conditions of series [1]: oral route.

Structures can show the parent of a compound that is named as a salt.

`CC(=O)Oc1cccc2c1C(=O)c1c(OC(C)=O)cc(C(=O)O)cc1C2=O` [Diacerein, 4,5-bis(acetyloxy)9,10-dihydro-4,5-dihydroxy-9,10-dioxo-2-anthracenecarboxylic acid]: the solubility in solvents result (solvents such as water, alcohols, acetone, dichloromethane and chloroform) is recorded as “practically insoluble”. Further, the “absorption by the digestive tract” value in series [1] is given as “cannot be completely absorbed”.

In the case of `CC(=O)Oc1cccc2c1C(=O)c1c(OC(C)=O)cc(C(=O)O)cc1C2=O` [potassium salt of diacerein], where the note is “water, disclosed in EP 243,968”, the solubility in water entry is reported as “water-soluble”.
